Values of other authors as cited in patent publication US20080221033A1, “Monitoring of Cardiac Natriuretic Peptides During Diagnosis, Management, and Treatment of Cardiac Diseases” (Koninklijke Philips Electronics N. V., priority 2005, published 2008).
Like-named read-outs stand apart in the source and are kept apart here.

Experiments:
[1] = test system: patients hospitalized with congestive heart failure
[2] = patients hospitalized with congestive heart failure

brain natriuretic peptide [BNP]
terminal half-life in the bloodstream (in words) (in vivo): a few minutes to a few hours

nesiritide
effectiveness versus parenteral vasodilators and inotropic agents ([1]; decompensated heart failure, vs nitroprusside, nitroglycerin, dobutamine, milrinone): more effective | onset of action ([1]; human, in vivo): 15 min | tolerability versus parenteral vasodilators and inotropic agents ([1]; human, in vivo): better tolerated | pulmonary arterial pressure [1, 2]: reduces | pulmonary capillary wedge pressure [1, 2]: reduces | right atrial pressure [1, 2]: reduces | systemic vascular resistance [1, 2]: reduces | onset of therapeutic action ([1]; typical cardiac patients): about 15 minutes

B1: N-terminal pro-BNP (protein, UniProt P16860 27-102, looked up)
NT-proBNP: HPLGSPGSASDLETSGLQEQRNHLQGKLSELQVEQTSLEPLQESPRPTGVWKSREVATEGIRGHRKMVLYTLRAPR
modifications: NT-proBNP
terminal half-life in the bloodstream (in words) (bloodstream, 'believed to be'): about a month or longer
